Data as given in patent US20050123616A1, “Azithromycin multiparticulate dosage forms by liquid-based processes” (Pfizer Inc, priority 2003, published 2005).

Tests used:
[1] = distilled water at pH 6.9; cited from earlier work
[2] = amount of azithromycin dihydrate dissolved in coating solution, indicated by pH; type: physicochemical; details: aqueous hydroxypropyl cellulose coating solution, pH 9
Protocol: Multiparticulates were made by a spray-coating process using the following procedure. First, 30 g of the low reactivity carrier hydroxypropyl cellulose containing virtually no acid or ester substituents (KLUCEL EF from Aqualon, Inc. of Wilmington, Del.) were dissolved into 800 g of distilled water. To this solution was then added 119.6 g of crystalline azithromycin dihydrate having a degree of crystallinity of >99%.

- amount of azithromycin dihydrate dissolved in the solution [2]: less than 1 mg/mL
Compound: CC[C@H]1OC(=O)[C@H](C)[C@@H](O[C@H]2C[C@@](C)(OC)[C@@H](O)[C@H](C)O2)[C@H](C)[C@@H](O[C@@H]2O[C@H](C)C[C@H](N(C)C)[C@H]2O)[C@](C)(O)C[C@@H](C)CN(C)[C@H](C)[C@@H](O)[C@]1(C)O [azithromycin dihydrate, 9a-aza-9a-methyl-9-deoxo-9a-homoerythromycin A]
- solubility [1]: 1100 µg/mL
